Drawing on patent publication US8552220B2, “Therapeutic agent for Alzheimer's disease” (Tokyo Institute of Technology, priority 2008, dated 2013), this text covers melting point for 37 compounds.

SMILES strings stand for the structures.

Compound `COc1cc(O)ccc1/C=C/C(=O)CC(=O)/C=C/c1cc(O)ccc1Br` [CU561, (1E,6E)-1-(2-bromo-5-hydroxyphenyl)-7-(4-hydroxy-2-methoxyphenyl)hepta-1,6-diene-3,5-dione] showed a melting point of 92 to 98 °C.
The figure for `CN(C)c1ccc(/C=C/C(=O)CC(=O)/C=C/c2ccc(N(C)C)cc2Cl)c(Cl)c1` [CU412, (1E,6E)-1,7-bis(2-chloro-4-dimethylaminophenyl)hepta-1,6-diene-3,5-dione] is 238 to 241 °C.
Turning to `O=C(/C=C/c1ccc(O)cc1)CC(=O)/C=C/c1cc(OCc2ccccc2)ccc1-c1ccccc1` [CU527, (1E,6E)-1-(4-benzyloxybiphenyl-2-yl)-7-(4-hydroxyphenyl)hepta-1,6-diene-3,5-dione], the melting point is 172 to 178 °C.
Consider `O=C(/C=C/c1ccc2cc[nH]c2c1)CC(=O)/C=C/c1cc(O)ccc1-c1ccccc1` [CU604, (1E,6E)-1-(4-hydroxybiphenyl-2-yl)-7-(1H-indol-6-yl)hepta-1,6-diene-3,5-dione], for which the melting point was in the range of 185 to 191 °C.
`O=C(/C=C/c1ccc(O)cc1)CC(=O)/C=C/c1ccc(O)cc1Br` [CU671, (1E,6E)-1-(2-bromo-4-hydroxyphenyl)-7-(4-hydroxyphenyl)hepta-1,6-diene-3,5-dione] had a melting point of 196 to 205 °C.
`COc1cc(Br)c(/C=C/C(=O)CC(=O)/C=C/c2ccc(O)cc2)cc1O` [CU543, (1E,6E)-1-(2-bromo-5-hydroxy-4-methoxyphenyl)-7-(4-hydroxyphenyl)hepta-1,6-diene-3,5-dione] gave a melting point of 224 to 229 °C.
`O=C(/C=C/c1ccc(O)cc1)CC(=O)/C=C/c1cc(Cl)ccc1-c1ccccc1` [CU641, (1E,6E)-1-(4-chlorobiphenyl-2-yl)-7-(4-hydroxyphenyl)hepta-1,6-diene-3,5-dione] came in with a melting point of 193 to 196 °C.
Compound `COc1cc(O)ccc1/C=C/C(=O)CC(=O)/C=C/c1cc(OCc2ccccc2)ccc1-c1ccccc1` [CU559, (1E,6E)-1-(4-benzyloxybiphenyl-2-yl)-7-(4-hydroxy-2-methoxyphenyl)hepta-1,6-diene-3,5-dione] came in with a melting point of 175 to 180 °C.
Consider `CN(C)c1ccc(/C=C/C(=O)CC(=O)CCc2ccc(O)cc2)c([N+](=O)[O-])c1` [CU523, (E)-1-(4-dimethylamino-2-nitrophenyl)-7-(4-hydroxyphenyl)hept-1-ene-3,5-dione], for which the melting point is 136 to 142 °C.
In the case of `O=C(/C=C/c1ccc(O)cc1)CC(=O)/C=C/c1cc(O)ccc1-c1cccc2ccccc12` [CU538, (1E,6E)-1-[5-hydroxy-2-(naphthalen-1-yl)phenyl]-7-(4-hydroxyphenyl)hepta-1,6-diene-3,5-dione], the melting point was 215 to 221 °C.
`COc1cc(/C=C/C(=O)CC(=O)/C=C/c2ccc(O)cc2Cl)ccc1O` [CU129, (1E,6E)-1-(2-chloro-4-hydroxyphenyl)-7-(4-hydroxy-3-methoxyphenyl)hepta-1,6-diene-3,5-dione] showed a melting point of 185 to 192 °C.
For `COc1cc(O)ccc1/C=C/C(=O)CC(=O)/C=C/c1ccccc1C(F)(F)F` [CU574, (1E,6E)-1-(4-hydroxy-2-methoxyphenyl)-7-(2-trifluoromethylphenyl)hepta-1,6-diene-3,5-dione], the melting point was in the range of 176 to 180 °C.
The compound `O=C(/C=C/c1ccc(O)cc1)CC(=O)/C=C/c1ccccc1Br` [CU486, (1E,6E)-1-(2-bromophenyl)-7-(4-hydroxyphenyl)hepta-1,6-diene-3,5-dione] yielded a melting point of 155 to 159 °C.
The figure for `O=C(/C=C/c1ccc(O)cc1)CC(=O)/C=C/c1cc(OCc2ccc(Cl)cc2Cl)ccc1[N+](=O)[O-]` [CU493, (1E,6E)-1-[5-(2,4-dichlorobenzyloxy)-2-nitrophenyl]-7-(4-hydroxyphenyl)hepta-1,6-diene-3,5-dione] is 157 to 161 °C.
For the compound `O=C(/C=C/c1ccc(O)cc1)CC(=O)/C=C/c1ccccc1C=Cc1ccccc1` [CU672, (1E,6E)-1-(4-hydroxyphenyl)-7-(2-styrylphenyl)hepta-1,6-diene-3,5-dione], the melting point was in the range of 119 to 128 °C.
Under `COc1ccc(/C=C/C(=O)CC(=O)/C=C/c2ccc(O)cc2Cl)cc1O` [CU130, (1E,6E)-1-(2-chloro-4-hydroxyphenyl)-7-(3-hydroxy-4-methoxyphenyl)hepta-1,6-diene-3,5-dione] stands 120 to 130 °C; under `COCOc1ccc([N+](=O)[O-])c(/C=C/C(=O)CC(=O)/C=C/c2ccc(O)cc2)c1` [CU649, (1E,6E)-1-(4-hydroxyphenyl)-7-[5-(methoxymethoxy)-2-nitrophenyl]hepta-1,6-diene-3,5-dione], 175 to 180 °C; under `O=C(/C=C/c1ccc(O)cc1)CC(=O)/C=C/c1cc(Br)ccc1F` [CU466, (1E,6E)-1-(5-bromo-2-fluorophenyl)-7-(4-hydroxyphenyl)hepta-1,6-diene-3,5-dione], 177 to 203 °C.
`O=C(/C=C/c1ccc(O)cc1)CC(=O)/C=C/c1ccccc1-c1cccc2ccccc12` [CU528, (1E,6E)-1-(4-hydroxyphenyl)-7-[2-(naphthalen-1-yl)phenyl]hepta-1,6-diene-3,5-dione] yielded a melting point of 95 to 101 °C.
With `O=C(/C=C/c1ccc(O)cc1)CC(=O)/C=C/c1ccccc1-c1cnnn1Cc1ccccc1` [CU645, (1E,6E)-1-[2-(1-benzyl-1H-1,2,3-triazol-5-yl)phenyl]-7-(4-hydroxyphenyl)hepta-1,6-diene-3,5-dione], the melting point lay in the range of 205 to 215 °C.
In turn, `CN(C)S(=O)(=O)c1ccccc1/C=C/C(=O)CC(=O)/C=C/c1ccc(O)cc1` [CU480, (1E,6E)-1-[2-(dimethylaminosulfonyl)phenyl]-7-(4-hydroxyphenyl)hepta-1,6-diene-3,5-dione] returned a melting point of 86 to 90 °C.
The compound `O=C(/C=C/c1ccc(O)cc1)CC(=O)/C=C/c1cc(F)ccc1-c1ccccc1` [CU640, (1E,6E)-1-(4-fluorobiphenyl-2-yl)-7-(4-hydroxyphenyl)hepta-1,6-diene-3,5-dione] gave a melting point of 187 to 191 °C.
Take `CN(C)C(=O)c1ccccc1/C=C/C(=O)CC(=O)/C=C/c1ccc(O)cc1` [CU479, (1E,6E)-1-[2-(dimethylaminocarbonyl)phenyl]-7-(4-hydroxyphenyl)hepta-1,6-diene-3,5-dione]: the melting point lay within 210 to 218 °C.
Turning to `O=C(/C=C/c1ccc(O)cc1)CC(=O)/C=C/c1ccccc1-c1ccccc1` [CU472, (1E,6E)-1-(biphenyl-2-yl)-7-(4-hydroxyphenyl)hepta-1,6-diene-3,5-dione], the melting point lay in the range of 180 to 188 °C.
As for `CN(C)CCOc1ccc(Br)c(/C=C/C(=O)CC(=O)/C=C/c2ccc(O)cc2)c1` [CU552, (1E,6E)-1-[2-bromo-5-(2-dimethylaminoethoxy)phenyl]-7-(4-hydroxyphenyl)hepta-1,6-diene-3,5-dione], the melting point lay within 163 to 167 °C.
The compound `O=C(/C=C/c1ccc2cc[nH]c2c1)CC(=O)/C=C/c1cc(O)ccc1Br` [CU562, (1E,6E)-1-(2-bromo-5-hydroxyphenyl)-7-(1H-indol-6-yl)hepta-1,6-diene-3,5-dione] yielded a melting point of 196 to 200 °C.
`COc1cc(/C=C/C(=O)CC(=O)/C=C/c2ccc(O)cc2)c(Br)c(Br)c1O` [CU652, (1E,6E)-1-(2,3-dibromo-4-hydroxy-5-methoxyphenyl)-7-(4-hydroxyphenyl)hepta-1,6-diene-3,5-dione] yielded a melting point of 215 to 218 °C.
In the case of `O=C(/C=C/c1ccc(O)cc1)CC(=O)/C=C/c1cc(O)ccc1F` [CU621, (1E,6E)-1-(2-fluoro-5-hydroxyphenyl)-7-(4-hydroxyphenyl)hepta-1,6-diene-3,5-dione], the melting point was in the range of 205 to 209 °C.
For `O=C(/C=C/c1ccc(O)cc1Cl)CC(=O)/C=C/c1cc(O)ccc1[N+](=O)[O-]` [CU611, (1E,6E)-1-(2-chloro-4-hydroxyphenyl)-7-(5-hydroxy-2-nitrophenyl)hepta-1,6-diene-3,5-dione], the melting point was in the range of 132 to 136 °C.
The compound `CCOC(=O)c1cnnn1-c1ccccc1/C=C/C(=O)CC(=O)/C=C/c1ccc(O)cc1` [CU626, (1E,6E)-1-[2-(5-ethoxycarbonyl-1H-1,2,3-triazol-1-yl)phenyl]-7-(4-hydroxyphenyl)hepta-1,6-diene-3,5-dione] showed a melting point of 93 to 96 °C.
In the case of `O=C(/C=C/c1ccc(O)cc1)CC(=O)/C=C/c1cc(O)c(Br)cc1Br` [CU544, (1E,6E)-1-(2,4-dibromo-5-hydroxyphenyl)-7-(4-hydroxyphenyl)hepta-1,6-diene-3,5-dione], the melting point was 255 to 259 °C.
In turn, `O=C(/C=C/c1ccc(O)cc1)CC(=O)/C=C/c1cc(O)ccc1-c1ccccc1` [CU526, (1E,6E)-1-(4-hydroxybiphenyl-2-yl)-7-(4-hydroxyphenyl)hepta-1,6-diene-3,5-dione] yielded a melting point of 179 to 186 °C.
As to `O=C(/C=C/c1ccc(O)cc1)CC(=O)/C=C/c1ccccc1-c1ccc2ccccc2c1` [CU529, (1E,6E)-1-(4-hydroxyphenyl)-7-[2-(naphthalen-2-yl)phenyl]hepta-1,6-diene-3,5-dione], the melting point was 105 to 114 °C.
The figure for `COc1cc(O)ccc1/C=C/C(=O)CC(=O)/C=C/c1cc(O)ccc1-c1ccccc1` [CU582, (1E,6E)-1-(4-hydroxybiphenyl-2-yl)-7-(4-hydroxy-2-methoxyphenyl)hepta-1,6-diene-3,5-dione] is 108 to 114 °C; for `CN(C)c1ccc(/C=C/C(=O)CC(=O)/C=C/c2ccc(O)cc2)c(C(F)(F)F)c1` [CU555, (1E,6E)-1-(4-dimethylamino-2-trifluoromethylphenyl)-7-(4-hydroxyphenyl)hepta-1,6-diene-3,5-dione] it is 195 to 199 °C.
With `O=C(/C=C/c1ccc2cc[nH]c2c1)CC(=O)/C=C/c1ccc(O)cc1Cl` [CU601, (1E,6E)-1-(2-chloro-4-hydroxyphenyl)-7-(1H-indol-6-yl)hepta-1,6-diene-3,5-dione], the melting point is 182 to 186 °C.
For the compound `O=C(/C=C/c1ccc(O)cc1)CC(=O)/C=C/c1ccc(N2CCC(Cc3ccccc3)CC2)cc1Br` [CU1091, (1E,6E)-1-[4-(4-benzylpiperidin-1-yl)-2-bromophenyl]-7-(4-hydroxyphenyl)hepta-1,6-diene-3,5-dione], the melting point was in the range of 155 to 161 °C.

The melting point is the temperature, or range, at which the solid turns liquid.
